Laboratory results taken from US5861387A, “Controlled release systems and low dose androgens” (Endorecherche Inc., priority 1995, dated 1999).

Legend:
[1] = tested on: ZR-75-1 human breast cancer cells, progesterone receptor; assay: Progesterone receptor-mediated inhibition of ZR-75-1 cell growth; type: cell-based
Experimental: These two characteristics of ZR-75-1 cell growth permit study of the extent to which a tested compound's effects on ZR-75-1 cells are attributed to its interaction with PgR by evaluating the effect of insulin and/or estrogen addition on the growth response measured at the end of a 15-day incubation of ZR-75-1 cells with the test compounds.

estrogenic activity = conditions: cited from earlier work
[2] = tested on: estrogen (ER) and progesterone (PgR) receptor contents in ZR-75-1 cells; conditions: cited from earlier work
endometriosis = conditions: in vivo; cited from earlier work
[3] = tested on: human breast cancer ZR-75-1 cells, androgen receptor; assay: Androgenic (androgen receptor) activity in ZR-75-1 cells: cell growth and GCDFP-15/GCDFP-24 secretion; type: cell-based; conditions: ZR-75-1 cells, low concentrations
Experimental: Maintenance of stock cultures The ZR-75-1 human breast cancer cell line can be obtained from the American Type Culture Collection (Rockville, Md.). The cells are routinely cultured in phenol red-free RPMI 1640 medium supplemented with 10 nM E2, 15 mM Hepes, 2 mM L-glutamine, 1 mM sodium pyruvate, 100 IU penicillin per ml, 100 μg streptomycin sulfate per ml, and 10% (v/v) fetal bovine serum (FBS), in a water-saturated atmosphere of 95% air: 5% CO2 at 37° C.
Stock cultures in their logarithmic growth phase are harvested with 0.05% trypsin/0.02% EDTA (w/v) in Hanks' balanced salts solution and resuspended in E2- and phenol red-free RPMI 1640 medium containing 5% (v/v) dextran-coated charcoal (DCC)-treated FBS and 500 ng of bovine insulin per ml, but otherwise supplemented as described above for maintenance of stock cultures. Cells were plated in 24-well Linbro culture plates (Flow Laboratories) at a final density of 0.5-4.0×10^4 cells/well.
Fourty-eight hours after plating, fresh SD medium containing the appropriate concentrations of steroids are added. […] The incubation media are replaced every other day and cells are harvested by trypsinization after 12 days of treatment, unless otherwise indicated. Cell number can be determined with a Coulter Counter.
Calculations and statistical analyses Apparent IC50 values are calculated using an iterative least squares regression (Rodbard, Endocrinology 94:1427-1437,1974), while apparent inhibition constants (Ki values) are calculated according to Cheng and Prusoff (Biochem. Pharmacol. 22: 3099-3108,1973).
In addition to inhibition of cell growth, the secretion of two glycoproteins, namely gross cystic disease fluid protein-15 (GCDFP-15) and GCDFP-24 is markedly stimulated by androgens (Simard et al., Mol. Endocrinol. 3: 694-702, 1989; Simard et al., Endocrinology 126: 3223-3231, 1990).
(§1) To assist in determining the activity of the potential compounds on the various steroid receptors, androgen, glucocorticoid, progesterone and estrogen-receptor-mediated activities of synthetic progestins and anabolic steroids can be measured in ZR-75-1 human breast cancer cells using cell growth as well as GCDFP-15 and GCDFP-24 release as parameters of response (Poulin and Labrie, Cancer Res. 46: 4933-4937, 1986; Poulin et al., Breast Cancer Res. Treatm. 12: 213-225, 1988; Poulin et al., Breast Cancer Res. Treatm. 13: 161-172, 1989; Poulin et al., Breast Cancer Res. Treatm. 13: 265-276, 1989; Simard et al., Mol. Endocrinol. 3: 694-702, 1989; Simard et al., Endocrinology 126: 3223-3231, 1990).
In order to analyze the interactions of synthetic progestins or anabolic steroids with the androgen receptor (AR) and glucocorticoid receptor (GR) in their inhibitory action on cell growth, one takes advantage of the additivity of the anti-proliferative effects of androgens and glucocorticoids in this cell line (Poulin et al., Breast Cancer Res. Treatm. 12: 213-225, 1988; Hatton and Labrie, F., unpublished data). […] On the other hand, the effect of a putative androgen can similarly be measured following saturation of GR by dexamethasone (DEX). […] Thus, in the presence of excess androgen (1 μM DMT) in the presence of E2 and insulin, glucocorticoid effects can be assessed with precision and with no interference by the other receptors. The same applies to study of the role of AR when the cells are incubated in the presence of excess glucocorticoid (3 μM DEX), in the presence of E2 and insulin.

bone = conditions: in vivo; cited from earlier work
[4] = tested on: ZR-75-1 human breast cancer cells, glucocorticoid receptor; conditions: detailed kinetic studies
Text: as §1
In order to analyze the interactions of synthetic progestins or anabolic steroids with the androgen receptor (AR) and glucocorticoid receptor (GR) in their inhibitory action on cell growth, one takes advantage of the additivity of the anti-proliferative effects of androgens and glucocorticoids in this cell line (Poulin et al., Breast Cancer Res. Treatm. 12: 213-225, 1988; Hatton and Labrie, F., unpublished data). […] On the other hand, the effect of a putative androgen can similarly be measured following saturation of GR by dexamethasone (DEX). […]

## CCC(=O)[C@@]1(C)CC[C@H]2[C@@H]3CCC4=CC(=O)CCC4=C3CC[C@@]21C [R5020]
[1]
  condition under which antiproliferative effect is observed: observed only under E1 -stimulated conditions
[1]; addition of insulin
  effect of insulin on inhibition via PgR: completely reverses the inhibition

## C#C[C@]1(O)CC[C@H]2[C@@H]3CCC4=CC(=O)CC[C@@H]4[C@H]3CC[C@@]21C [norethisterone]
Estrogenic activity
  estrogenic activity: possess estrogenic activity

## CC(C)(O)C(=O)Nc1ccc([N+](=O)[O-])c(C(F)(F)F)c1 [hydroxyflutamide]
[2]
  effect on androgenic action of DHT: competitively reversed

## C[C@]12CCC(=O)C=C1CC[C@@H]1[C@@H]2CC[C@@]2(C)[C@H]1CC[C@]2(C)O [methyltestosterone, 17α-methyltestosterone]
endometriosis
  symptoms of endometriosis: relieve the symptoms of endometriosis

## C#CC1(O)CC[C@H]2[C@@H]3CCC4=CC(=O)CC[C@@H]4[C@H]3CC[C@@]21CC (mixture of isomers) [norgestrel]
Estrogenic activity
  estrogenic activity: possess estrogenic activity
[3]
  androgenic activity: possess androgenic activity at low concentrations

## C[C@]12CC[C@H]3[C@@H](CCC4=CC(=O)CC[C@@H]43)[C@@H]1CC[C@@H]2O [nandrolone]
bone
  androgenic side effects: 50 % of patients
  cortical bone mineral content: increased cortical bone mineral content

## C[C@@H]1C[C@H]2[C@@H]3CCC4=CC(=O)C=C[C@]4(C)[C@@]3(F)[C@@H](O)C[C@]2(C)[C@@]1(O)C(=O)CO [DEX, dexamethasone]
[4]
  concentration exerting maximal inhibitory effect on the GR: 3 µM
